Measurements: patent US20220160872A1, “Drug Adsorbed Highly Porous Activated Carbon for Enhanced Drug Delivery” (THE BOARD OF TRUSTEES OF THE UNIVERSITY OF ILLINOIS, priority 2019, published 2022)

Legend:
HSV-1 = test: Prophylactic and therapeutic DECON treatment of HCEs with HSV-1 infection in vitro; format: cell-based; conditions: prophylactically added
Description: Cell monolayer was washed twice with PBS before whole media with required HSV infection was added.
To comprehensively test the efficacy of drug release and resulting antiviral activity of DECON particles, a prophylactic and therapeutic model of treatment was used on HCEs followed by HSV-1 infection in vitro.
Flow cytometry was conducted on the samples at 24 hpi showing the extent of cells infected with HSV-1 GFP (see FIG. 8C). FIG. 8d provides representative immunoblots for samples showing HSV-1 gB protein in comparison with GAPDH for HSV-1 infected HCEs at 24 hpi.

HSV-2 (333 strain) = test: Murine model of vaginal HSV-2 infection; format: in vivo, BALB/c mice
Description: Naïve 4-week-old female BALB/c mice were purchased from Jackson Laboratory (Bar Harbor, USA) and housed in the university BRL for a period of one week for acclimatization before they were subcutaneously injected with 2 mg of medroxyprogesterone (Depo-Provera) per mice. On day 5 post injection, mice were intravaginally infected with 1×10^6 PFU HSV-2 (333 strain). Similar to the ocular model of infection, DECON was applied topically (intravaginally) on alternate days while ACV (50 mg/mL in PBS) was administered via an intraperitoneal injection. PBS was applied intravaginally as mock treatment for the control group. Vaginal swabs were collected using a Calgiswab (Calcium Alginate Mini-tip Urethro-Genital Swab, Puritan) dipped in OptiMEM (Gibco, USA). Images of the ano-genital region were taken on day 0 and day 7 post infection using a Carl Zeiss stereoscope at 7.5× magnification.
Experiments involving animals were performed under a UIC approved protocol ACC 14-091. The mice were monitored for weight loss and disease scores were recorded in a blinded fashion for 14 days. Sick mice were euthanized according to the IUCAC protocol followed by the collection of ocular/vaginal tissue and lymph nodes. Ocular wash and vaginal swabs were used to assess viral titers using a plaque assay.
With the success of topical ocular therapy with DECON, it was investigated whether this delivery platform was effective for vaginal HSV-2 infections as well. Naïve Balb/c mice were primed with medroxyprogestrone 5 days prior to intravaginal HSV-2 infection. Starting at day 1 post infection, mice were either treated with topical DECON or systemic ACV (5 mg/kg) by intraperitoneal injections […], DECON was administered intravaginally […]. The genital area was imaged using a stereoscope on days 0 and 7 to visualize the extent of damage done to the site of infection. […] This was observed by the phenotype of infection and analyzed by plaque assays from vaginal swabs. […] In the mock treated group, 60% of mice succumbed to death by day 14 post infection, while 20% of mice treated with systemic ACV and none of DECON treated mice succumbed to death (FIG. 5D).

HSV-1 (McKrae) = format: in vivo

SMILES | antiviral response (HSV-1) | mice succumbed to death (HSV-2 (333 strain); by day 14 post infection) | inflammation of vaginal and anogenital area (HSV-2 (333 strain); compared to mock-treated mice) | viral titers, plaque assays from vaginal swabs (HSV-2 (333 strain); day 4 and day 7 post infection, DECON intravaginal, ACV 5 mg/kg intraperitoneal) | lymph node size (HSV-2 (333 strain); day 14 post infection) | mice succumbed to death (HSV-1 (McKrae); by day 15, topical treatment on alternate days) | viral replication / infection vs mock treated (HSV-1 (McKrae); topical, alternate days, ocular washes)
Nc1nc2c(ncn2COCCO)c(=O)[nH]1 [ACV, Acyclovir] | did not elicit a robust antiviral response | 20% | only slight inflammation | steady reduction in viral titers | little to no increase in size | – | –
O=c1[nH]c(=O)n([C@H]2C[C@H](O)[C@@H](CO)O2)cc1C(F)(F)F [TFT, trifluridine] | – | – | – | – | – | Up to 20% | did not show any significant reduction in viral replication
